Patent publication US20040033213A1, “Methods of modulating dendritic cells using adjuvants” (Corixa Corporation, priority 2002, published 2004)

What was measured:
Assay type in all cases: cell-based
[1] = system: Human d7 Cultured Dendritic Cells; assay: Flow cytometry phenotype analysis of human d7 cultured dendritic cells after 24 h stimulation; settings: for HLA-DR MFI: 7 day DCs, 24 h stimulation
[2] = system: cultured human DCs + autologous T cells
[3] = system: murine bone marrow derived DCs + D011.10 T cells; assay: APC function of ova-pulsed, lipid A potentiated murine DCs co-cultured with D011.10 T cells (cytokine ELISA)
Description: These antigen pulsed, lipid A potentiated cells were then washed thoroughly and titered against ova-specific T cell effector cells in vitro at an APC: T cell ratio titration of 1:1 out to as high as 1:512. The effector T cells in this in vitro assay were the antigen naive, but antigen (ova) specific, MHC restricted I-A^d splenic T cells from transgenic D011.10 mice.
D011.10 TCR-transgenic mice were used in these experiments as donors of antigen specific naive T cells. In their germline DNA these mice contain rearranged TCR-Vα and -Vβ genes that encode a T cell receptor (TCR) specific for the ovalbumin peptide 323-339 bound to IA^d (Balb/c) Class II MHC molecules. The transgenic ova peptide specific TCR can be detected with the KJ1-26 monoclonal antibody (mAb) that binds only to this particular TCR heterodimer. These cells provide a ready source of “normal” antigen (ova)-specific effector T cells. Effective antigen-mediated APC stimulation of those T cells is generally measured by ELISA quantitation of IL-2 or IFN-γ in the culture supernatants of DC+D011.10 T cells after 24-48 hours of incubation.
In one experiment, murine bone marrow derived DCs (6 day cultures) were pulsed with ova (50 μg/ml-5×10^5 cells/ml) and then potentiated overnight with LPS(R595), MPL® immunostimulant-S, RC-527, RC-529 or RC-544 prior to being cultured together with naive D011.10 effector T cells (FIGS. 1-7). The APC function of these DCs as measured by their ability to stimulate IL-2, IFN-γ IL-12 (p70) and IL-12 (p40) secretion in the DC+D011.10 co-culture systems was analyzed. All of the data shown in FIGS. 1-7 was developed from DCs maintained in lipid A induction cultures for either 15 or 38 hours prior to use in the T cell assay.

[4] = system: cultured human dendritic cells (DC); assay: Flow cytometry of cell surface activation markers on human DCs restimulated 72 hours with AGPs (titration)
Procedure: Dendritic cells are developed in-vitro from human CD14+ monocyte precursors using standard 7 day GM-CSF ([…]) and IL-4 ([…]) culture conditions. The cultured DCs are >90% CD11c^+/HLA-DR^+/lineage^− by flow cytometry analysis. FIGS. 15-18 show the results of flow cytometry analysis of gated CD11c^+/HLA-DR^+/lineage^− human DCs after they were restimulated in-vitro for 72 hours in the presence of selected AGPs at a titration range of 0.1 μg/ml-2 μg/ml. Data is expressed as the percent of gated DCs which are positive for the indicated marker (y-axis) versus the logo10 of the AGP or lipid A concentration. R595 LPS was used in each induction at 10 ng/ml as a positive control—the negative control was unstimulated human dendritic cells cultured for 72 hours in the same medium conditions used for AGP stimulation. Data was analyzed using non-linear regression analysis—all data was modeled using a 3rd order polynomial to determiine the best curve fit.

[5] = Exp. 091698, 24 h, LPS 10 ng/ml, others 100 ng/ml
[6] = Exp. 092398, 24 h, LPS 10 ng/ml, others 100 ng/ml
[7] = Exp. 093098, 24 h, LPS 10 ng/ml, others 100 ng/ml

For CCCCCCCCCCCCCC(=O)O[C@H](CCCCCCCCCCC)CC(=O)NCCO[C@@H]1O[C@H](CO)[C@@H](OP(=O)(O)O)[C@H](OC(=O)C[C@@H](CCCCCCCCCCC)OC(=O)CCCCCCCCCCCCC)[C@H]1NC(=O)C[C@@H](CCCCCCCCCCC)OC(=O)CCCCCCCCCCCCC.CCN(CC)CC [RC-529, 2-[(R)-3-Tetradecanoyloxytetradecanoylamino]ethyl 2-Deoxy-4-O-phosphono-3-O-[(R)-3-tetradecanoyoxytetradecanoyl]-2-[(R)-3-tetradecanoyoxytetradecanoylamino]-β-D-glucopyranoside triethylammonium salt], the “CD 1a % positive cells” value [1, 5] was 94.3%, the “CD 1a MFI” value [1, 5] was 9.29 and the “CD 4 % positive cells” value [1, 5] was 77.0%. The “CD 4 MFI” value [1, 5] was 2.44, the “CD 14 % positive cells” value [1, 5] was 7.5% and the “CD 35 % positive cells” value [1, 5] was 47.6%. The “CD 35 MFI” value [1, 5] was 2.66, the “CD 40 MFI” value [1, 5] was 22.0 and the “CD 44 MFI” value [1, 5] was 285. For the same molecule, the “CD 54 MFI” value [1, 5] was 28.2, the “CD 62 L % positive cells” value [1, 5] was 6.4% and the “CD 69 % positive cells” value [1, 5] was 4.4%. The “CD 80 % positive cells” value [1, 5] was 98.9%, the “CD 80 MFI” value [1, 5] was 6.19 and the “CD 83 % positive cells” value [1, 5] was 71.0%. For the same molecule, the “CD 83 MFI” value [1, 5] was 2.89, the “CD 86 % positive cells” value [1, 5] was 98.7% and the “CD 86 MFI” value [1, 5] was 9.30. For the same molecule, the “CD 95 % positive cells” value [1, 5] was 53.8%, the “CD 95 MFI” value [1, 5] was 1.12 and the “HLA-DR MFI” value ([1]; Exp. 091698, LPS 10 ng/ml, others 100 ng/ml) was 88.2. For the same molecule, the “CD 1a % positive cells” value [1, 6] was 86.5%, the “CD 1a MFI” value [1, 6] was 5.47 and the “CD 4 % positive cells” value [1, 6] was 71.6%. The “CD 4 MFI” value [1, 6] was 2.65, the “CD 14 % positive cells” value [1, 6] was 4.2% and the “CD 35 % positive cells” value [1, 6] was 58.8%. The “CD 35 MFI” value [1, 6] was 2.92, the “CD 40 MFI” value [1, 6] was 31.5 and the “CD 54 MFI” value [1, 6] was 36.6. For the same molecule, the “CD 62 L % positive cells” value [1, 6] was 11.1%, the “CD 69 % positive cells” value [1, 6] was 11.0% and the “CD 80 % positive cells” value [1, 6] was 99.1%. For the same molecule, the “CD 80 MFI” value [1, 6] was 8.46, the “CD 83 % positive cells” value [1, 6] was 94.7% and the “CD 83 MFI” value [1, 6] was 3.32. The “CD 86 % positive cells” value [1, 6] was 99.9%, the “CD 86 MFI” value [1, 6] was 25.3 and the “CD 95 % positive cells” value [1, 6] was 90.4%. The “CD 95 MFI” value [1, 6] was 1.43, the “αC5aR + GAR Alexa % positive cells” value [1, 6] was 53.4% and the “CD 44 MFI” value ([1]; Exp. 092398, 24 h, LPS 10 ng/ml, others 100 ng/ml, values printed with a trailing +) was 442+. For the same molecule, the “GAR-Alexa % positive cells” value ([1]; Exp. 092398, 24 h, secondary reagent staining, LPS 10 ng/ml, others 100 ng/ml) was 2.4%, the “HLA-DR MFI” value ([1]; Exp. 092398, LPS 10 ng/ml, others 100 ng/ml) was 158.8 and the “CCR 6 % positive cells” value [1, 7] was 5.3%. The “CD 1a % positive cells” value [1, 7] was 80.1%, the “CD 1a MFI” value [1, 7] was 6.51 and the “CD 3 % positive cells” value [1, 7] was 27.3%. The “CD 3 MFI” value [1, 7] was 3.87, the “CD 4 % positive cells” value [1, 7] was 77.9% and the “CD 4 MFI” value [1, 7] was 2.97. The “CD 11c % positive cells” value [1, 7] was 92.4%, the “CD 11c MFI” value [1, 7] was 6.82 and the “CD 14 % positive cells” value [1, 7] was 3.9%. For the same molecule, the “CD 40 MFI” value [1, 7] was 26.1, the “CD 54 MFI” value [1, 7] was 36.4 and the “CD 62 L % positive cells” value [1, 7] was 3.4%. For the same molecule, the “CD 80 % positive cells” value [1, 7] was 99.1%, the “CD 80 MFI” value [1, 7] was 10.7 and the “CD 83 % positive cells” value [1, 7] was 82.4%. The “CD 83 MFI” value [1, 7] was 3.38, the “CD 86 % positive cells” value [1, 7] was 99.7% and the “CD 86 MFI” value [1, 7] was 22.0. The “CD 123 % positive cells” value [1, 7] was 44.1%, the “CD 123 MFI” value [1, 7] was 1.90 and the “αC5aR + Alexa 488 % positive cells” value [1, 7] was 48.6%. The “αC5aR + Alexa 488 MFI” value [1, 7] was 10.4, the “HLA-DR MFI” value ([1]; Exp. 093098, LPS 10 ng/ml, others 100 ng/ml) was 161.5 and the “upregulation of HLA-DR expression (in words)” value ([1]; RC-529 compared with RC-544, all three experiments) was “slightly more effective”. For the same molecule, the “stimulating the expression of HLA-DR and co-stimulatory molecules (in words)” value ([1]; RC-529 compared with RC-544, three experiments) was “very comparable effects”, the “T cell proliferation / DC activation, CPM 3H-thymidine response (in words)” value [2] was “comparable in their effect and quantitatively higher than the background response” and the “IFN-γ release by D011.10 T cells (in words)” value ([3]; DCs precultured 38 hours, FIG. 3) was “very comparable to each other”. The “IL-2 secretion (in words)” value ([3]; DCs prestimulated 15 hours, all T cell:APC ratios, FIG. 1) was “comparable in their ability to stimulate IL-2 secretion”, the “IL-12 (p70) in DC+D011.10 co-cultures (in words)” value ([3]; FIG. 5) was “weakest ability” and the “release of IL-12 (p40) homodimer in DC+D011.10 co-cultures (in words)” value ([3]; FIG. 7) was “moderately less potent than either RC-544 or MPL® immunostimulant-S”. For the same molecule, the “concentration at which the CD80 effect appears to plateau” value ([4]; 72 hours, FIG. 15) was 1 µg/mL, the “concentration at which the CD86 effect plateaus or maximizes” value ([4]; 72 hours, FIG. 18) was 1 µg/mL and the “cell surface expression of CD80 (in words)” value ([4]; 72 hours, titration 0.1-2 μg/ml, FIG. 15) was “lowest overall increase in CD80 expression”. For the same molecule, the “DC expression of CD83 (in words)” value ([4]; 72 hours, titration 0.1-2 μg/ml, FIG. 16) was “weak overall increase in CD83 expression” and the “overall induction of DC maturation and co-stimulatory molecule expression (in words)” value ([4]; single analysis, one normal donor) was “very low to marginally positive CD80 and CD83 expression”.
